In one test the target is T1, JAK2 JH1 WT (T842-G1132) (Homo sapiens, UniProt O60674).
T1 construct: *JAK2 JH1 WT (T842-G1132) N-His60-avi-TEV; His6 (N); TEV cleavage site (N); purchased Biortus
Description: Surface Plasmon Resonance (SPR) binding assay, JAK2 JH1 domain. As to conditions: SPR, JAK2 JH1 domain. As to the method: Selected compounds of the present disclosure were tested in a Surface Plasmon Resonance (SPR) Assay to measure their binding kinetics and affinity for proteins of interest.
Prepare buffer: 50 mM HEPES pH 7.5, 150 mM NaCl, 0.05% (v/v) Tween, and 10% (v/v) glycerol were combined and pH was adjusted to 7.5, then filtered. 5 mM DTT, was added, and buffer without DMSO was reserved for compound resuspension. 2% (v/v) DMSO was added for assay buffer, and separately 1% DMSO was used to make buffer for resuspending compounds.
Prepare compounds: Using a Bravo liquid handler, 99 μL of 1% (v/v) DMSO assay buffer was added to 1 μL compounds in DMSO.
Run 8K Method: Biotin CAPture (CAP) chip surface was regenerated prior to run by: Inserting CAP chip into Biacore 8K, prime machine with assay buffer with 2% (v/v) DMSO; Setting instrument temperature to 20° C.; Conditioning surface with NaOH/GdnHCl reagents from CAP chip kit (60 seconds, 10 μL/min); and Capturing oligo-Streptavidin (SA) reagent from CAP kit (600 seconds, 1 μL/min), expected capture ˜2500 RU. JAK2 JH1 or JH2 protein was immobilized by preparing a sample of 0.5 uM JH1 or 0.4 uM JH2 protein diluted in assay buffer without DMSO and supplemented with 10 uM of a selected compound of the invention as a stabilizer (370 seconds, 5 uL/min), expected capture ˜1000 RU. Remaining biotin sites on SA were blocked with 1 uM biotin (30 seconds, 20 uL/min), then equilibrated for 1800 seconds at 100 uL/min. Compounds being assayed were run in single cycle kinetics: 4 doses with a top concentration of 5 uM (JH1) or 500 nM (JH2), dilution factor of 3, at 20° C., for a contact time of 60 seconds, and a dissociation time of 300 seconds (JH1) or 1200 seconds (JH2), at a flow rate of 30 uL/min. The surface was completely regenerated after each compound is run, and JH1 or JH2 protein was immobilized fresh prior to each new compound. Data were fitted kinetically with 1:1 binding model using Biacore Insight Evaluation Software.

Test [1] concerns the target T2, JAK2 JH2 WT (V536-D812) [W659A, W777A, F794H solubilizing mutations] (Homo sapiens, UniProt O60674, F794H/W659A/W777A).
T2 construct: **JAK2 JH2 WT (V536-D812) [W659A, W777A, F794H solubilizing mutations]; C-thrombin-avi-His6; thrombin cleavage site (C); His6 (C); purchased Biortus
Nature of the test: Surface Plasmon Resonance (SPR) binding assay, JAK2 JH2 domain. In short, it runs like this: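 Kinetics came from 1:1 fits of single-cycle runs at 20 °C: four 3-fold dilutions from 5 uM for JH1 or 500 nM for JH2, 60 s association, and 300 s or 1200 s dissociation respectively. Protein was freshly captured per compound in the presence of 10 uM stabilizer compound, with running buffer of pH 7.5 HEPES/NaCl/glycerol/DTT plus 2% DMSO.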

The test system of test [2] is TF1 JAK2 V617F STAT3 reporter. Nature of the test: Cellular TF1 STAT3 assay (luciferase reporter), JAK2 V617F. In kind it is cell-based. As to conditions: read-out: Cell PD-TF1 JAK2 V617F STAT3 (IC50). Summed up:
(§1)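 Inhibition of JAK2 V617F-mediated STAT3/STAT5 signalling is measured by reporter luminescence in TF1 erythroleukemia cells treated overnight (18-20 h) with a 10-point compound series; DMSO serves as vehicle.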
In general terms: In a reporter assay the amount or activity of a reporter protein is the signal.

In test [3] the test system is TF1 JAK2 V617F STAT5 reporter. Description: Cellular TF1 STAT5 assay (luciferase reporter), JAK2 V617F. Type of test: cell-based. As to conditions: read-out: Cell PD TF1 V617F STAT5 (IC50). Summed up:
as §1

Where [4] appears, read: Homo sapiens, TF-1, TF1 cells, JAK2 V617F.

The structures appear in SMILES notation. Read-outs that look alike come from different tables or passages of the source.

T1 sequence (O60674 842-1132): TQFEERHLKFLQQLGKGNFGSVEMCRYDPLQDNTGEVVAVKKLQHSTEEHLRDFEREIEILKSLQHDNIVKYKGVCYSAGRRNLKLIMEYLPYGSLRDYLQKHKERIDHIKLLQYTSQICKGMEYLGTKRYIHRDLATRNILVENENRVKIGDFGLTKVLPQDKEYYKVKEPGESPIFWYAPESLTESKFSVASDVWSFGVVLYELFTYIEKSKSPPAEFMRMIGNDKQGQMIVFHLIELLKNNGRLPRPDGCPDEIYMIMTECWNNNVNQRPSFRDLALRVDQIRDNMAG
T2 sequence (O60674 536-812 W659A/W777A/F794H): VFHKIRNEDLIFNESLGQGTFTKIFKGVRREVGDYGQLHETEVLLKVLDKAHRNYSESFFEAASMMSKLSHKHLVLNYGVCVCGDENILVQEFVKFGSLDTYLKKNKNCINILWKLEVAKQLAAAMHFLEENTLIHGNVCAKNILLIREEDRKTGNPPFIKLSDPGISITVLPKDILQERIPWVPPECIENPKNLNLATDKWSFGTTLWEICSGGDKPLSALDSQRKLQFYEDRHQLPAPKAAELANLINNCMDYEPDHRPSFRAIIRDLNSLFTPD

In the case of `CNC(=O)c1nnc(NC(=O)C2CC2)cc1Nc1cccc(-c2ccc(C(=O)NCc3cccn(C)c3=O)cc2)c1OC` [Compound 1], the Kd (in general, the equilibrium constant for the complex coming apart) fell in the range of 500 to 5000 nM at JAK2 JH1 WT (T842-G1132) and 0.01 to 10 nM in test [1] (SPR, JAK2 JH2 domain). Besides, the IC50 in test [2] (TF1 JAK2 V617F) and in test [3] (TF1 JAK2 V617F) was 500 to 5000 nM in each case.

`CNC(=O)c1nnc(NC(=O)C2CC2)cc1Nc1cccc(-c2ccc(C(=O)N(C)Cc3cccn(C)c3=O)cc2)c1OC` [Compound 3, 6-(cyclopropanecarboxamido)-4-((2-methoxy-4′-(methyl((1-methyl-2-oxo-1,2-dihydropyridin-3-yl)methyl)carbamoyl)-[1,1′-biphenyl]-3-yl)amino)-N-methylpyridazine-3-carboxamide]: the dissociation constant (Kd) at JAK2 JH1 WT (T842-G1132) is 5000 to 100000 nM; in test [1] (SPR, JAK2 JH2 domain) it was 0.01 to 10 nM. For the same molecule, the IC50 in test [2] (TF1 JAK2 V617F) and in test [3] (TF1 JAK2 V617F) was 500 to 5000 nM throughout.

Take `CNC(=O)c1nnc(NC(=O)C2CC2)cc1Nc1cccc(-c2ccc(C(=O)NCc3cccn(C)c3=O)nc2)c1OC` [Compound 4]: the Kd fell in the range of 5000 to 100000 nM on JAK2 JH1 WT (T842-G1132) and 0.01 to 10 nM in test [1] (SPR, JAK2 JH2 domain). In addition, the IC50 in test [2] (TF1 JAK2 V617F) and in test [3] (TF1 JAK2 V617F) was 500 to 5000 nM each time.

As to `CNC(=O)c1nnc(NC(=O)C2CC2)cc1Nc1cccc(-c2ncc(NC(=O)Cc3cccn(C)c3=O)cn2)c1OC` [Compound 6], the Kd on JAK2 JH1 WT (T842-G1132) is 500 to 5000 nM; in test [1] (SPR, JAK2 JH2 domain), 0.01 to 10 nM. For the same molecule, the IC50 in test [2] (TF1 JAK2 V617F) and in test [3] (TF1 JAK2 V617F) was 5000 to 100000 nM in each case.

Regarding `CNC(=O)c1nnc(NC(=O)C2CC2)cc1Nc1cccc(-c2ccc(C(=O)NCc3cccn(C)c3=O)nn2)c1OC` [Compound 8], the Kd at JAK2 JH1 WT (T842-G1132) lay in the range of 5000 to 100000 nM; in test [1] (SPR, JAK2 JH2 domain) it was 0.01 to 10 nM. Further, the figures for the 50% inhibitory concentration (IC50) in test [2] (TF1 JAK2 V617F) and in test [3] (TF1 JAK2 V617F) were 500 to 5000 nM and 5000 to 100000 nM, respectively.

`CNC(=O)c1nnc(NC(=O)C2CC2)cc1Nc1cccc(-c2cnc(C(=O)NCc3cccn(C)c3=O)nc2)c1OC` [Compound 9]: the Kd is 500 to 5000 nM on JAK2 JH1 WT (T842-G1132) and 0.01 to 10 nM in test [1] (SPR, JAK2 JH2 domain). Further, the IC50 (commonly the concentration that gives 50% inhibition) in test [2] (TF1 JAK2 V617F) was in the range of 500 to 5000 nM; in test [3] (TF1 JAK2 V617F), 5000 to 100000 nM.

Turning to `CNC(=O)c1nnc(NC(=O)C2CC2)cc1Nc1cccc(-c2ccc(C(=O)NCc3cccn(C)c3=O)c(C)c2)c1OC` [Compound 10], the dissociation constant (Kd) fell in the range of 5000 to 100000 nM on JAK2 JH1 WT (T842-G1132) and 0.01 to 10 nM in test [1] (SPR, JAK2 JH2 domain). Moreover, the IC50 in test [2] (TF1 JAK2 V617F) and in test [3] (TF1 JAK2 V617F) was 500 to 5000 nM throughout.

As to `CNC(=O)c1nnc(NC(=O)C2CC2)cc1Nc1cccc(-c2ccc(C(=O)N(C)Cc3cc(C#N)ccn3)cc2)c1OC` [Compound 11], the Kd on JAK2 JH1 WT (T842-G1132) was 5000 to 100000 nM; in test [1] (SPR, JAK2 JH2 domain), 0.01 to 10 nM. In addition, the IC50 in test [2] (TF1 JAK2 V617F) and in test [3] (TF1 JAK2 V617F) was 500 to 5000 nM each time.

`COc1c(Nc2cc(NC(=O)C3CC3)nnc2-c2ncc[nH]2)ccc(C)c1-c1ccc(C(=O)N(C)Cc2cc(C#N)ccn2)nc1` [Compound 371] yielded an equilibrium dissociation constant (Kd) in test [1] of 0.01 to 10 nM. The IC50 in test [2] (setting [4]) and in test [3] (setting [4]) was 50 to 500 nM in each case.

In the case of `CNC(=O)c1nnc(NC(=O)C2CC2)cc1Nc1cccc(-c2cnn(C3CC(Oc4cccc(C#N)n4)C3)c2)c1OC` (centres unmarked) [Compound 372], the Kd in test [1] lay within 0.01 to 10 nM. Moreover, the IC50 in test [2] (setting [4]) and in test [3] (setting [4]) was 500 to 5000 nM in each case.

In the case of `CNC(=O)c1nnc(NC(=O)C2CC2)cc1Nc1cccc(-c2cnn(C3CN(Cc4cccn5ccnc45)C3)c2)c1OC` [Compound 373], the Kd in test [1] lay within 0.01 to 10 nM. In addition, the IC50 in test [2] (setting [4]) and in test [3] (setting [4]) was 50 to 500 nM each time.

`CNC(=O)c1nnc(NC(=O)C2CC2)cc1Nc1cccc(-c2cnn(C3CN(Cc4cccc5nccn45)C3)c2)c1OC` [Compound 374] returned a Kd in test [1] of 0.01 to 10 nM. The IC50 in test [2] (setting [4]) and in test [3] (setting [4]) was 50 to 500 nM throughout.

In turn, `COc1c(Nc2cc(NC(=O)C3CC3)nnc2-c2ncc[nH]2)ccc(C)c1-c1ccc(C(=O)N(C)Cc2cn(C)nc2C)nc1` [Compound 376] came in with a Kd in test [1] of 0.01 to 10 nM. The concentration for half-maximal inhibition (IC50) in test [2] (setting [4]) and in test [3] (setting [4]) was 500 to 5000 nM throughout.

Values taken from patent US20240368122A1, “JAK2 INHIBITORS AND METHODS OF USE THEREOF” (RELAY THERAPEUTICS, INC., priority 2021, published 2024).
